The source of these data is US9845295B2, “Triphenylethylene compounds and uses thereof” (Purdue Research Foundation, priority 2015, dated 2017).

The structures appear in SMILES notation. Bounds are passed on as bounds.

Data set [1] has as its system progesterone receptor (PGR) mRNA expression in MCF-7 human breast cancer cells. Nature of the data set: Antagonism of β-estradiol-stimulated progesterone receptor (PGR) mRNA expression in MCF-7 cells. It is filed as cell-based. Conditions: 1 μM compound, 24 h, 10 nM E2 alone set as 100%. The protocol: To investigate the effects of ligand binding on ER-mediated transcriptional activities, the triphenylethylene bisphenols were tested for their abilities to antagonize β-estradiol (E2) in a functional assay. […] In this commonly used assay, the progesterone receptor (PGR) mRNA expression is used for assessing estrogenic or antiestrogenic activity in MCF-7 human breast cancer cells. […] The PGR mRNA expression level with 10 nM E2 stimulation alone was set as 100%, and the antiestrogenic effects of the compounds was monitored by the reduction of β-estradiol-stimulated mRNA levels.
Cell Culture and Test Compound Treatment. […]
The MCF-7 cells treated with test compounds or experimental controls for 24 h were harvested for progesterone receptor (PGR) messenger ribonucleic acid (mRNA) extraction. […] The RNA concentration was measured using the Qubit RNA BR assay (Life Technologies Corp., Carlsbad, Calif.) for the Qubit 2.0 fluorometer (Life Technologies Corp., Carlsbad, Calif.). […]
Complementary deoxyribonucleic acid (cDNA) for the real-time quantitative polymerase chain reaction (PCR) assay was synthesized from DNase-treated total RNA using the QuantiTect reverse transcription kit (QiagenInc., Valencia, Calif., USA).
Real-Time Quantitative Polymerase Chain Reaction (PCR) for cDNA. […]

For the next data set, the system named is ER in MCF-7-2a cells. Conditions: in words; cited from earlier work.
Data set [2] addresses T1, recombinant human aromatase (CYP19) (Homo sapiens, UniProt P11511).
T1 construct: purchased BD Biosciences (San Jose, Calif.)
T1 sequence (P11511 1-503): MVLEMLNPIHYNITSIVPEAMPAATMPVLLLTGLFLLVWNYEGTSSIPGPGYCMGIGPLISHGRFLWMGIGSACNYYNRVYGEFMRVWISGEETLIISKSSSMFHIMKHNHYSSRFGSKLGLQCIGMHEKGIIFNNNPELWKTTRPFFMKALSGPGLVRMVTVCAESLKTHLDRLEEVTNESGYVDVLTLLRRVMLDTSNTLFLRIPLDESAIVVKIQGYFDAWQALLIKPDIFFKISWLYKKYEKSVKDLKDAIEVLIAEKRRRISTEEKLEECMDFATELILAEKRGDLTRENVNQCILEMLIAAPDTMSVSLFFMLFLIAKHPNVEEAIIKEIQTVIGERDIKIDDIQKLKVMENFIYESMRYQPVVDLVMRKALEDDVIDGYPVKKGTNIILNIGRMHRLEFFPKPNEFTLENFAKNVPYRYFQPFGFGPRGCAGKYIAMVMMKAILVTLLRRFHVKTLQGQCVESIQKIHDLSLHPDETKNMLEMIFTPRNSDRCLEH
Nature of the data set: Inhibition of recombinant human aromatase (CYP19) by microsomal incubations (MFC fluorometric substrate). It is filed as biochemical. The protocol: Inhibition of Recombinant Human Aromatase (CYP19) by Microsomal Incubations.
All tested samples were dissolved in either methanol or DMSO. […] All the reactions were stopped by adding 0.1 M tris base dissolved in acetonitrile (75 μL). […] The extent of enzyme inhibition was expressed as the percentage of remaining enzyme activity compared to the control.

The target of a further data set is T2, recombinant human ER-α (Homo sapiens, UniProt P03372).
T2 construct: purchased Invitrogen (Carlsbad, Calif.)
T2 sequence (P03372 1-595): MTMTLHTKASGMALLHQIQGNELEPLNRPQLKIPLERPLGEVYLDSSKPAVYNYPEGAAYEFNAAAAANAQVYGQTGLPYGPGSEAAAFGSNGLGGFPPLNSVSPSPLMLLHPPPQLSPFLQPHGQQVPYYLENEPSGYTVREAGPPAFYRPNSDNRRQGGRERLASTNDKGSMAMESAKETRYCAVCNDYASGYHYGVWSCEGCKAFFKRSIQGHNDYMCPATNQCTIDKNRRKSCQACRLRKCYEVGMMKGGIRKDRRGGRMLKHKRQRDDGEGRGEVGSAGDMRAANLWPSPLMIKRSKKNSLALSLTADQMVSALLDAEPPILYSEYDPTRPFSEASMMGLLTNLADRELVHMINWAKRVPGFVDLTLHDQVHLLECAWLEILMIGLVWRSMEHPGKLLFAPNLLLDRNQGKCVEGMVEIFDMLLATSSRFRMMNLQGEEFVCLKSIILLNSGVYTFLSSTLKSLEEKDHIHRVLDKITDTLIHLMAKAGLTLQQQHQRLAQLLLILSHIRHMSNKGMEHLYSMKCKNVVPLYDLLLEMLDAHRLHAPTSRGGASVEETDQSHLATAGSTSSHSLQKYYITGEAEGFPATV
As to the kind of experiment: Binding affinity for recombinant human ER-α (fluorescence polarization, ES2 displacement). The protocol: (§1) Binding Affinities for Recombinant Human ER-α and ER-β.
(§2) The binding affinities of ER-α and ER-β were determined by measuring the change of polarization value when the fluorescent estrogen ligand, ES2, was displaced by the tested compounds. Experimental procedures were consistent with the protocol provided by Invitrogen. The fluorescent estrogen ligand, ES2, was provided in methanol/water (4:1, v/v) with the concentration of 1800 nM. Recombinant human ER-α and ER-β were provided in buffer (50 mM bis-tris propane, 400 mM KCl, 2 mM DTT, 1 mM EDTA and 10% glycerol), with the concentration of 734 nM and 3800 nM, respectively. All tested samples were dissolved in either methanol or DMSO. The sample solutions (1 pt) were mixed well with 49 pt of ES2 screening buffer (100 mM potassium phosphate, 100 μg/mL BGG and 0.02% NaN3). The ER-α/ES2 complex was prepared with the fluorescent estrogen ligand ES2, human recombinant ER and ES2 screening buffer with the concentrations of 9 nM ES2 and 30 nM ER-α. The ER-β/ES2 complex was prepared with the fluorescent estrogen ligand ES2, human recombinant ER-β and ES2 screening buffer with the concentrations of 9 nM ES2 and 20 nM ER-ft Reactions were initiated by adding ER/ES2 complex (50 μL) to bring the incubation volume to 100 μL and incubated for 2 h avoiding light. […] Excitation-emission wavelengths for fluorescence polarization were […]. The polarization values in the presence of the test competitors were compared with those in control, in which the competitor was replaced with vehicle. The extent of competition was expressed as the percentage of remaining polarization compared to the control.

For the next data set, the target named is T3, recombinant human ER-β (Homo sapiens, UniProt Q92731).
T3 construct: purchased Invitrogen (Carlsbad, Calif.)
Nature of the data set: Binding affinity for recombinant human ER-β (fluorescence polarization, ES2 displacement). Conditions: Table 1; determined only for compounds with >90% competition. The protocol: as §1, §2

Data set [3] deals with postmenopausal women with breast cancer. The note with it: five-year ATAC trial; cited from earlier work.
Where [4] appears, read: Table 1, mean of at least three experiments.

T3 sequence (Q92731 whole entry): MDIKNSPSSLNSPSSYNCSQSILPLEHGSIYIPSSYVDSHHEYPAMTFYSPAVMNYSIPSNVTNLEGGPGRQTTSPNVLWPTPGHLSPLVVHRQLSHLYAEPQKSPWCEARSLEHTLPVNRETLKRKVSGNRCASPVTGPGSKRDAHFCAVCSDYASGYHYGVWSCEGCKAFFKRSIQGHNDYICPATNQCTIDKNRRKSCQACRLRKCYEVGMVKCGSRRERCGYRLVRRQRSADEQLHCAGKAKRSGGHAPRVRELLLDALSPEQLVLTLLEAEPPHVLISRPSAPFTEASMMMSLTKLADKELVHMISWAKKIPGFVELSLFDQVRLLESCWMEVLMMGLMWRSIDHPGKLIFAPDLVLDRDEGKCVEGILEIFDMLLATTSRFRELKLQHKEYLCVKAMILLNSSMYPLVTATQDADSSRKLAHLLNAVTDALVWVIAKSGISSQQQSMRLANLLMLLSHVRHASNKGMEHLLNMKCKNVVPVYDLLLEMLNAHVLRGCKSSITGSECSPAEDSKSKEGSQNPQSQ

`CC/C(=C(\c1ccc(O)cc1)c1ccc(OCCN)cc1)c1ccccc1` [(E,Z)-norendoxifen]: the “PGR mRNA expression level in the presence of 10 nM E2” value in data set [1] is on record as 33%.

For `CCC(=C(c1ccc(O)cc1)c1ccc(O)cc1)c1ccccc1` [Compound 7, reference compound], the “ER antagonism / agonism in MCF-7-2a cells” value in the data set with ER in MCF-7-2a cells was “good ER antagonist without significant agonistic side effects”. Also, the IC50 (in general, the concentration that gives 50% inhibition) in data set [2] (Table 2, determined for compounds with inhibition higher than 90%) is 24900 ± 1400 nM. Besides, the ER-α percent competition at recombinant human ER-α (Table 2, at 100000 nM compound) is on record as 80% competition. In addition, on recombinant human ER-β, the EC50 (usually the concentration giving half of the maximal effect) is 307 ± 106 nM.

In the case of `N#CCC(=C(c1ccc(O)cc1)c1ccc(O)cc1)c1ccccc1` [Compound 11, 4,4-Bis(4-hydroxyphenyl)-3-phenylbut-3-enenitrile], the melting point (commonly the temperature, or range, at which the solid turns liquid) lay within 198 to 200 °C. Besides, the half-inhibitory concentration (IC50) in data set [2] (setting [4]) turned out to be 12800 nM. In addition, on recombinant human ER-α (Table 1, at 100 μM compound), the ER-α percent competition amounted to 56% competition.

Turning to `Oc1ccc(C(=C(Cn2ccnc2)c2ccccc2)c2ccc(O)cc2)cc1` [Compound 12, 4,4′-(3-(1H-Imidazol-1-yl)-2-phenylprop-1-ene-1,1-diyl)diphenol], the melting point lay in the range of 225 to 227 °C. In addition, in data set [2] (setting [4]), the IC50 amounted to 4.77 ± 0.38 nM. In data set [2] (vs compound 7), the “fold improvement/increase in aromatase inhibitory activity compared with 7” value is given as greater than 5000 fold. The EC50 on recombinant human ER-α (Table 1, determined only for compounds with >90% competition) is 27.3 nM. The EC50 at recombinant human ER-β was determined as 40.9 nM.

Turning to `Oc1ccc(C(=C(Cn2cncn2)c2ccccc2)c2ccc(O)cc2)cc1` [Compound 13, 4,4′-(2-Phenyl-3-(1H-1,2,4-triazol-1-yl)prop-1-ene-1,1-diyl)diphenol], the melting point is 143 to 145 °C. The IC50 in data set [2] (setting [4]) was found to be 137 nM. For the same compound, the ER-α percent competition on recombinant human ER-α (Table 1, at 100 μM compound) is 12% competition.

In turn, `N#CCC(=C(c1ccc(O)cc1)c1ccc(O)cc1)c1ccc(O)c(F)c1` [Compound 17b, 3-(3-Fluoro-4-hydroxyphenyl)-4,4-bis(4-hydroxyphenyl)but-3-enenitrile] had a melting point of 180 to 183 °C. In data set [2] (setting [4]), the IC50 amounted to 17200 ± 2200 nM. Further, the ER-α percent competition on recombinant human ER-α (Table 1, at 100 μM compound) was determined as 0% competition.

`N#CCC(=C(c1ccc(O)cc1)c1ccc(O)cc1)c1ccc(N)cc1` [Compound 25, 3-(4-Aminophenyl)-4,4-bis(4-hydroxyphenyl)but-3-enenitrile] returned a melting point of 235 to 238 °C. Besides, in data set [2] (setting [4]), the IC50 was found to be 36.3 ± 0.8 nM. For the same compound, the ER-α percent competition at recombinant human ER-α (Table 1, at 100 μM compound) is on record as 0% competition.

For the compound `CC/C(=C(\c1ccc(O)cc1)c1ccc(OCCNC)cc1)c1ccccc1` [Endoxifen], in data set [1], the “PGR mRNA expression level in the presence of 10 nM E2” value came out at 10%.

Regarding `CC(C)(C#N)c1cc(Cn2cncn2)cc(C(C)(C)C#N)c1` [anastrozole], in data set [3], the “improvement of disease-free survival compared to tamoxifen” value is 13%, the “reduction in occurrence of contralateral breast cancer compared to tamoxifen” value is on record as 42%, the “reduction in risk of distant metastasis compared to tamoxifen” value is recorded as 16% and the “reduction in the rate of recurrence compared to tamoxifen” value was 21%.
